Assay results from patent US12668600B2 (Kumquat Biosciences Inc., priority 2023, dated 2026).

Legend:
Type in all cases: biochemical
[1] = target: T1, KRAS G12V (Homo sapiens, UniProt P01116, G12V); assay: HTRF KRAS-SOS1 interaction assay, KRAS G12V; settings: binned ≤2 μM / >2 μM, read-out: Inhibition of KRAS G12V (IC50)
T1 construct: made in house; host or cells: E. coli, e.g. BL21 (DE3)
How it was run: (§1)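 GST-KRAS + anti-GST-Eu; His-hSOS1 + anti-6His-XL665; cpd in DMSO, duplicate, 10–0.01 μM; ~10 min incubation; HTRF ex 337/em 620, 665 nm; IC50 fitted on 665/620 ratio.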

[2] = target: T2, KRAS WT (Homo sapiens, UniProt P01116); assay: HTRF KRAS-SOS1 interaction assay, wildtype KRAS; settings: binned ≤2 μM / >2 μM, read-out: Inhibition of KRAS WT (IC50)
T2 construct: made in house; host or cells: E. coli, e.g. BL21 (DE3)
T2 sequence (P01116 1-188 isoform P01116-2): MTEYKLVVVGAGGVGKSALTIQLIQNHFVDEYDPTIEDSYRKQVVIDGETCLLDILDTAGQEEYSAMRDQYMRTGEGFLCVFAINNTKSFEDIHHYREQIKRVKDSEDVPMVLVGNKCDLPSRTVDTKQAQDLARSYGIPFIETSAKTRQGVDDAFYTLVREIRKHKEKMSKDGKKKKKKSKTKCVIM
How it was run: as §1

[3] = target: T3, KRAS G12S (Homo sapiens, UniProt P01116, G12S); assay: HTRF KRAS-SOS1 interaction assay, KRAS G12S; settings: binned ≤2 μM / >2 μM, read-out: Inhibition of KRAS G12S (IC50)
T3 construct: made in house; host or cells: E. coli, e.g. BL21 (DE3)
T3 sequence (P01116 1-188 isoform P01116-2 G12S): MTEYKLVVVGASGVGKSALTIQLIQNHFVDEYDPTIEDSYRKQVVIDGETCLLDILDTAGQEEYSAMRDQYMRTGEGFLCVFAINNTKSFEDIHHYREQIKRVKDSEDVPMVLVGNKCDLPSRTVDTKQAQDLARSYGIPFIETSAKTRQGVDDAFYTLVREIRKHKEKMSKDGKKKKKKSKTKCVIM
How it was run: as §1

[4] = target: T4, KRAS G12D (Homo sapiens, UniProt P01116, G12D); assay: HTRF KRAS-SOS1 interaction assay, KRAS G12D; settings: binned ≤2 μM / >2 μM, read-out: Inhibition of KRAS G12D (IC50)
T4 construct: made in house; host or cells: E. coli, e.g. BL21 (DE3)
T4 sequence (P01116 1-188 isoform P01116-2 G12D): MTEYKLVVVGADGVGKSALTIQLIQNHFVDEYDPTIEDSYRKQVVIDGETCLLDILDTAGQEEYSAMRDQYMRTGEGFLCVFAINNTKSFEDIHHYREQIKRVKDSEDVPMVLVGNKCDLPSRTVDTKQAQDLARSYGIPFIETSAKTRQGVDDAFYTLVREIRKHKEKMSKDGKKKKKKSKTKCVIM
How it was run: as §1

T1 sequence (P01116 1-188 isoform P01116-2 G12V): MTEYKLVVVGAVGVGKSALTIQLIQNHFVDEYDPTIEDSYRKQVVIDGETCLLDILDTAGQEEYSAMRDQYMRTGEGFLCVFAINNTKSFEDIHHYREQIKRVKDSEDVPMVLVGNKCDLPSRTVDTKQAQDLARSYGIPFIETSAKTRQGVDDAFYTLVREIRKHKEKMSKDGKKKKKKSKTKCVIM

IC50 [1] [nM] | IC50 [2] [nM] | IC50 [3] [nM] | IC50 [4] [nM] | SMILES
≤ 2000 | > 2000 | ≤ 2000 | > 2000 | N#Cc1c(N)sc2c(F)ccc(-c3c(C(F)(F)F)c4c5c(nc(OC[C@@]67CCCN6C[C@H](F)C7)nc5c3F)N([C@H](CCC3CCC3)c3cccnc3N)CCO4)c12 (single isomer, unassigned) [Compound 631]
≤ 2000 | ≤ 2000 | ≤ 2000 | ≤ 2000 | N#Cc1c(N)sc2c(F)ccc(-c3c(Cl)c4c5c(nc(OC[C@@]67CCCN6C[C@H](F)C7)nc5c3F)N(C(CCCO)c3cccnc3N)CCO4)c12 (mixture of isomers) [Compound 822, 2-amino-4-(4-(1-(2-aminopyridin-3-yl)-4-hydroxybutyl)-8-chloro-10-fluoro-2-(((2R,7aS)-2-fluorotetrahydro-1H-pyrrolizin-7a(5H)-yl)methoxy)-5,6-dihydro-4H-[1,4]oxazepino[5,6,7-de]quinazolin-9-yl)-7-fluorobenzo[b]thiophene-3-carbonitrile]
> 2000 | > 2000 | > 2000 | > 2000 | N#Cc1c(N)sc2c(F)ccc(-c3c(C(F)(F)F)c4c5c(nc(OC[C@@]67CCCN6C[C@H](F)C7)nc5c3F)N([C@H](CC3CCC3)c3cccnc3N)CCO4)c12 (single isomer, unassigned) [Compound 902]
≤ 2000 | ≤ 2000 | ≤ 2000 | ≤ 2000 | C[C@H](c1cccnc1N)N1CCOc2c(C(F)(F)F)c(-c3ccc(F)c4sc(N)c(C#N)c34)c(F)c3nc(OC[C@@]45CCCN4CC(CN(C)C)C5)nc1c23 (mixture of isomers) [Compound 721, 2-amino-4-(4-((R)-1-(2-aminopyridin-3-yl)ethyl)-2-(((7aS)-2-((dimethylamino)methyl)tetrahydro-1H-pyrrolizin-7a(5H)-yl)methoxy)-10-fluoro-8-(trifluoromethyl)-5,6-dihydro-4H-[1,4]oxazepino[5,6,7-de]quinazolin-9-yl)-7-fluorobenzo[b]thiophene-3-carbonitrile]
> 2000 | > 2000 | > 2000 | > 2000 | N#Cc1c(N)sc2c(F)ccc(-c3c(C(F)(F)F)c4c5c(nc(OC[C@@]67CCCN6C[C@H](F)C7)nc5c3F)N([C@H](CCC3CC3)c3cccnc3N)CCO4)c12 (single isomer, unassigned) [Compound 606]
≤ 2000 | ≤ 2000 | ≤ 2000 | ≤ 2000 | CC(=O)N1CCC(C[C@H](c2cccnc2N)N2CCOc3c(C(F)(F)F)c(-c4ccc(F)c5sc(N)c(C#N)c45)c(F)c4nc(OC[C@@]56CCCN5C[C@H](F)C6)nc2c34)CC1 [Compound 658, 4-(4-((R)-2-(1-acetylpiperidin-4-yl)-1-(2-aminopyridin-3-yl)ethyl)-10-fluoro-2-(((2R,7aS)-2-fluorotetrahydro-1H-pyrrolizin-7a(5H)-yl)methoxy)-8-(trifluoromethyl)-5,6-dihydro-4H-[1,4]oxazepino[5,6,7-de]quinazolin-9-yl)-2-amino-7-fluorobenzo[b]thiophene-3-carbonitrile]
≤ 2000 | ≤ 2000 | ≤ 2000 | ≤ 2000 | C[C@H](Oc1nc2c3c(c(Cl)c(-c4ccc(F)c5sc(N)c(C#N)c45)c(F)c3n1)OCCN2[C@H](C)c1cccnc1N)[C@@H]1CCCN1C (mixture of isomers) [Compound 803, 2-amino-4-(4-((R)-1-(2-aminopyridin-3-yl)ethyl)-8-chloro-10-fluoro-2-((S)-1-((S)-1-methylpyrrolidin-2-yl)ethoxy)-5,6-dihydro-4H-[1,4]oxazepino[5,6,7-de]quinazolin-9-yl)-7-fluorobenzo[b]thiophene-3-carbonitrile]
≤ 2000 | ≤ 2000 | ≤ 2000 | ≤ 2000 | C[C@H](c1cccnc1N)N1CCOc2c(C(F)(F)F)c(-c3cc(F)c(F)c4sc(N)c(C#N)c34)c(F)c3nc(OC[C@@]45CCCN4C[C@H](F)C5)nc1c23 (single isomer, unassigned) [Compound 853]
≤ 2000 | ≤ 2000 | ≤ 2000 | ≤ 2000 | C[C@H](c1cccnc1Cl)N1CCOc2c(C(F)(F)F)c(-c3ccc(F)c4sc(N)c(C#N)c34)c(F)c3nc(OC[C@@]45CCCN4C[C@H](F)C5)nc1c23 [Compound 730, 2-amino-4-(4-((R)-1-(2-chloropyridin-3-yl)ethyl)-10-fluoro-2-(((2R,7aS)-2-fluorotetrahydro-1H-pyrrolizin-7a(5H)-yl)methoxy)-8-(trifluoromethyl)-5,6-dihydro-4H-[1,4]oxazepino[5,6,7-de]quinazolin-9-yl)-7-fluorobenzo[b]thiophene-3-carbonitrile]
≤ 2000 | ≤ 2000 | ≤ 2000 | ≤ 2000 | N#Cc1c(N)sc2c(F)ccc(-c3c(C(F)(F)F)c4c5c(nc(OC[C@@]67CCCN6C[C@H](F)C7)nc5c3F)N([C@H](CCC3CC3)c3cccnc3N)CCO4)c12 (single isomer, unassigned) [Compound 877]
≤ 2000 | ≤ 2000 | ≤ 2000 | ≤ 2000 | CCO/N=C(\C)CCC[C@H](c1cccnc1N)N1CCOc2c(C(F)(F)F)c(-c3ccc(F)c4sc(N)c(C#N)c34)c(F)c3nc(OC[C@@]45CCCN4C[C@H](F)C5)nc1c23 (single isomer, unassigned) [Compound 715]
≤ 2000 | ≤ 2000 | ≤ 2000 | ≤ 2000 | C=C1CN2CC(=C)CC2(COc2nc3c4c(c(C(F)(F)F)c(-c5ccc(F)c6sc(N)c(C#N)c56)c(F)c4n2)OCCN3[C@H](C)c2cccnc2N)C1 (single isomer, unassigned) [Compound 775]
≤ 2000 | ≤ 2000 | ≤ 2000 | ≤ 2000 | N#Cc1c(N)sc2c(F)ccc(-c3c(C(F)(F)F)c4c5c(nc(OC[C@@]67CCCN6C[C@H](F)C7)nc5c3F)N([C@H](C/C=C/C(F)(F)F)c3cccnc3N)CCO4)c12 (single isomer, unassigned) [Compound 739]
≤ 2000 | ≤ 2000 | ≤ 2000 | ≤ 2000 | CC[C@H](c1cc(F)cnc1N)N1CCOc2c(C(F)(F)F)c(-c3ccc(F)c4sc(N)c(C#N)c34)c(F)c3nc(OC[C@@]45CCCN4C[C@H](F)C5)nc1c23 [Compound 870, 2-amino-4-(4-((R)-1-(2-amino-5-fluoropyridin-3-yl)propyl)-10-fluoro-2-(((2R,7aS)-2-fluorotetrahydro-1H-pyrrolizin-7a(5H)-yl)methoxy)-8-(trifluoromethyl)-5,6-dihydro-4H-[1,4]oxazepino[5,6,7-de]quinazolin-9-yl)-7-fluorobenzo[b]thiophene-3-carbonitrile]
≤ 2000 | ≤ 2000 | ≤ 2000 | ≤ 2000 | N#Cc1c(N)sc2c(F)ccc(-c3c(C(F)(F)F)c4c5c(nc(OCC6(CN7CCC8(CC7)CC8(F)F)CC6)nc5c3F)N([C@H](CCC(F)(F)F)c3cccnc3N)CCO4)c12 [Compound 637, 2-amino-4-(4-((R)-1-(2-aminopyridin-3-yl)-4,4,4-trifluorobutyl)-2-((1-((1,1-difluoro-6-azaspiro[2.5]octan-6-yl)methyl)cyclopropyl)methoxy)-10-fluoro-8-(trifluoromethyl)-5,6-dihydro-4H-[1,4]oxazepino[5,6,7-de]quinazolin-9-yl)-7-fluorobenzo[b]thiophene-3-carbonitrile]
≤ 2000 | ≤ 2000 | ≤ 2000 | ≤ 2000 | C[C@H](c1cc(Cl)cnc1N)N1CCOc2c(C(F)(F)F)c(-c3ccc(F)c4sc(N)c(C#N)c34)c(F)c3nc(OCC4(CN5CC[C@@H](F)C5)CC4)nc1c23 [Compound 811, 2-amino-4-(4-((R)-1-(2-amino-5-chloropyridin-3-yl)ethyl)-10-fluoro-2-((1-(((R)-3-fluoropyrrolidin-1-yl)methyl)cyclopropyl)methoxy)-8-(trifluoromethyl)-5,6-dihydro-4H-[1,4]oxazepino[5,6,7-de]quinazolin-9-yl)-7-fluorobenzo[b]thiophene-3-carbonitrile]
> 2000 | > 2000 | > 2000 | > 2000 | C[C@H](c1cc(F)cnc1N)N1CCOc2c(C(F)(F)F)c(-c3ccc(F)c4sc(N)c(C#N)c34)c(F)c3nc(OC[C@@]45CCCN4C[C@H](F)C5)nc1c23 (single isomer, unassigned) [Compound 682]
≤ 2000 | ≤ 2000 | ≤ 2000 | ≤ 2000 | N#Cc1c(N)sc2c(F)ccc(-c3c(C(F)(F)F)c4c5c(nc(OC[C@@]67CCCN6CC(=C(F)F)C7)nc5c3F)N([C@H](CC3CCOCC3)c3cccnc3N)CCO4)c12 [Compound 781, 2-amino-4-(4-((R)-1-(2-aminopyridin-3-yl)-2-(tetrahydro-2H-pyran-4-yl)ethyl)-2-(((S)-2-(difluoromethylene)tetrahydro-1H-pyrrolizin-7a(5H)-yl)methoxy)-10-fluoro-8-(trifluoromethyl)-5,6-dihydro-4H-[1,4]oxazepino[5,6,7-de]quinazolin-9-yl)-7-fluorobenzo[b]thiophene-3-carbonitrile]
≤ 2000 | ≤ 2000 | ≤ 2000 | ≤ 2000 | C[C@H](c1nccnc1N)N1CCOc2c(C(F)(F)F)c(-c3ccc(F)c4sc(N)c(C#N)c34)c(F)c3nc(OC[C@@]45CCCN4C[C@H](F)C5)nc1c23 (single isomer, unassigned) [Compound 760]
